Reference: patent US20210346359A1, “Use of CFTR Modulators For Treating Cerebrovascular Conditions” (Qanatpharma AG, priority 2018, published 2021)
“Also recorded” adds a separate entry of the source.

Legend:
CFTR mRNA = assay: Quantitative PCR of CFTR mRNA in cerebral arteries of naïve mice treated in vivo; set-up: species or system mouse; conditions: 3 mg/kg daily for 2 days, vs vehicle controls
Description: Resistance artery RNA was isolated with Norgen Biotek (Thorold, Canada) “Total RNA Purification Micro” spin columns, using the proteinase K digestion and DNA removal procedures, as directed by the manufacturer's instructions. The eluted RNA was quantified with an Agilent Technologies RNA 6000 Pico Kit and Bioanalyzer; the analysis confirmed that high-quality RNA was retrieved from the artery tissue samples (RNA Integrity [RIN]: Cerebral=8.4±0.1, n=5; Cremaster=8.2±0.4, n=6). Isolation of RNA from Baby Hamster Kidney fibroblast cells followed the same procedure, with the omission of the proteinase K digestion step. […]
Quantitative FOR was performed using an Applied Biosystems ViiA™ 7 Real Time FCR system and Power SYBR® Green FCR master mix (both distributed by lnvitrogen Life Technologies). […] Gene targets were assessed in triplicate, using 1 ng of cDNA generated from the reverse transcription; negative controls received water. […] Transcript expression levels in mouse tissues were calculated from the DCt values relative to the standard housekeeping gene hydroxymethylbilane synthase (HMBS). To confirm that HMBS was reliable for normalization, transcript expression levels were also calculated from the DCt values relative to glucose-6-phosphate dehydrogenase (G6PD), which returned similar results. […]

[1] = tested on: mice with subarachnoid hemorrhage; assay: Cleaved caspase-3 and Fluoro-Jade staining of cortical cells in subarachnoid hemorrhage mice; assay type: in vivo, mouse; conditions: 2 days post-SAH, 3 mg/kg daily for 2 days
Description: The development of delayed vasoconstriction and brain injury is more rapid in the experimental mouse SAH model (2-5 days post-SAH) (12,19-21), compared to what is observed clinically (4-12 days post-SAH) (22,23). […] At 2 days post-SAH induction, animals were anesthetized with isoflurane; their brains were perfused with phosphate buffered saline (PBS) and then perfusion fixed with phosphate-buffered paraformaldehyde (4%; pH 7.4), both via the ascending aorta. Brains were immediately dissected and cut into coronal sections 1 mm posterior to the bregma. These brain sections were post-fixed in 4% paraformaldehyde (pH 7.4) for 48 hours at 4° C. and then incubated in 10% sucrose (3 hours), followed by 30% sucrose overnight (at 4° C.) for cyroprotection. The brain sections were then embedded in OCT (Sakura Finetek USA; Torrance, USA) on isopentane and dry ice. Cryostat sections (5 μm thick coronal slices) were collected on “Tissue Path Superfrost Plus Gold” slides (Fisher Scientific; Whitby, Canada) and stored at −80° C. until used.
All samples were pre-treated with 10-minute proteinase (20 μg/ml; Promega; Madison, USA), followed by a standard 60-minute blocking procedure with either 10% normal donkey serum (Jackson immunoResearch Laboratories; West Grove, USA) in PBS or 10% goat serum (Invitrogen Life Technologies; Burlington, Canada) in PBS containing 1% bovine serum albumin. Brain slices were incubated with monoclonal rabbit anti-human active cleaved caspase-3 ([…] C92-605; 1:1000 dilution; BD Biosciences Canada; Mississauga Canada) and conjugated with Alexa Fluor 488 goat anti-rabbit IgG (Invitrogen). Both antibodies were diluted in Can Get Signal® immunoreaction enhancer solution and used an incubation time of 1 hour at room temperature. Specimens were washed and mounted with CC MountÔ.
Brain slices were serially incubated with 1% NaOH/80% ethanol (5 minutes), 70% ethanol (2 minutes), distilled water (2 minutes) and 0.06% potassium permanganate (10 minutes). After washing with deionized water, brain slices were stained with 0.0004% Fluoro-jade B (Histo-Chem Inc, Jefferson, USA) in 0.1% acetic acid (15 minutes). […]
Digital immunofluorescence images were acquired using a Zeiss LSM 710 confocal laser-scanning microscope in conjunction with Zeiss ZEN 2010 software (vessel images). […] Two independent assessors counted caspase-3 and Fluoro-Jade positive cells under blinded conditions, as previously described (12). For each animal, counts were obtained from the cortical region of a single coronal brain slice 1 mm posterior to the bregma (200× magnification), which includes the left and right temporal and parietal lobes The number of positive cells counted by each assessor was averaged, yielding a mean positive cell count/animal that was then used for statistical analyses.

O=C(Nc1ncc(C(c2ccccc2Cl)N2CCC(O)C2)s1)C1(c2ccc3c(c2)OCO3)CC1 (stereo not drawn) [C18, 1-(benzo[d][1,3]dioxol-5-yl)-N-(5-((2-chlorophenyl)(3-hydroxypyrrolidin-1-yl)methyl)thiazol-2-yl)cyclopropanecarboxamide]
cerebral artery CFTR mRNA expression (CFTR mRNA): not affected; also recorded: does not influence | SAH-induced increase in Fluoro-Jade positive cortical cells [1]: dramatically attenuate; also recorded: abolish | SAH-induced increase in cleaved caspase-3 positive cortical cells [1]: dramatically attenuate; also recorded: abolish

Cc1ccc(NC(=O)C2(c3ccc4c(c3)OC(F)(F)O4)CC2)nc1-c1cccc(C(=O)O)c1 [lumacaftor]
cerebral artery CFTR mRNA expression (CFTR mRNA): unaffected; also recorded: does not influence | SAH-induced increase in Fluoro-Jade positive cortical cells [1]: dramatically attenuate; also recorded: abolish | SAH-induced increase in cleaved caspase-3 positive cortical cells [1]: dramatically attenuate; also recorded: abolish
